“And” between values parts separate entries of the source, which are not always exact repeats. Equal values may be shown once. Toxic doses and inconclusive results are not listed. Square brackets hold non-standard residues; d marks the D form. Peptide text beside a SMILES is read from it. * marks the point of attachment. ξ: configuration not given here. Cbz = O=C(OCc1ccccc1)*; ξI = CCC(C)C(N)C(=O)O
System: BDF1 mice, B16 melanoma ip, median survival T/C
Assay: NCI In Vivo Anticancer Drug Screen. Data for tumor model B16 Melanoma (intraperitoneal) in B6D2F1 (BDF1) mice
Details: endpoint: median survival time, higher = longer survival
How it was run: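 Tumor-bearing mice received test compound or vehicle. Survival or tumor size was then measured in both groups. The treated-group figure was divided by the control-group figure.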

[1] = dose: 100.0 mg/kg/injection, schedule: Q01DX009 (ip), vehicle: saline
[2] = dose: 200.0 mg/kg/injection, schedule: Q01DX009 (ip), vehicle: saline
[3] = dose: 400.0 mg/kg/injection, schedule: Q01DX009 (ip), vehicle: saline
[4] = dose: 100.0 mg/kg/injection, schedule: Q01DX009 (ip), vehicle: saline with Tween-80
[5] = dose: 200.0 mg/kg/injection, schedule: Q01DX009 (ip), vehicle: saline with Tween-80
[6] = dose: 400.0 mg/kg/injection, schedule: Q01DX009 (ip), vehicle: saline with Tween-80
[7] = dose: 25.0 mg/kg/injection, schedule: Q01DX009 (ip), vehicle: saline
[8] = dose: 50.0 mg/kg/injection, schedule: Q01DX009 (ip), vehicle: saline
[9] = dose: 50.0 mg/kg/injection, schedule: Q01DX009 (ip), vehicle: saline with Tween-80
[10] = dose: 100.0 mg/kg/injection, schedule: Q04DX003 (ip), vehicle: Klucel (hydroxypropylcellulose) (HPC)
[11] = dose: 200.0 mg/kg/injection, schedule: Q04DX003 (ip), vehicle: Klucel (hydroxypropylcellulose) (HPC)
[12] = dose: 100.0 mg/kg/injection, schedule: Q01DX009 (ip), vehicle: Klucel (hydroxypropylcellulose) (HPC)
[13] = dose: 200.0 mg/kg/injection, schedule: Q01DX009 (ip), vehicle: Klucel (hydroxypropylcellulose) (HPC)
[14] = dose: 6.25 mg/kg/injection, schedule: Q01DX009 (ip), vehicle: saline
[15] = dose: 12.5 mg/kg/injection, schedule: Q01DX009 (ip), vehicle: saline
[16] = dose: 25.0 mg/kg/injection, schedule: Q01DX009 (ip), vehicle: Klucel (hydroxypropylcellulose) (HPC)
[17] = dose: 50.0 mg/kg/injection, schedule: Q01DX009 (ip), vehicle: Klucel (hydroxypropylcellulose) (HPC)
[18] = dose: 400.0 mg/kg/injection, schedule: Q04DX003 (ip), vehicle: Klucel (hydroxypropylcellulose) (HPC)

## CCS/C(SC)=C(/c1ccccc1)[P+](c1ccccc1)(c1ccccc1)c1ccccc1
dose: 0.19 mg/kg/injection, schedule: Q01DX009 (ip), vehicle: Klucel (hydroxypropylcellulose) (HPC)
  T/C: 99 % of control
dose: 0.38 mg/kg/injection, schedule: Q01DX009 (ip), vehicle: Klucel (hydroxypropylcellulose) (HPC)
  T/C: 99 % of control
dose: 0.75 mg/kg/injection, schedule: Q01DX009 (ip), vehicle: Klucel (hydroxypropylcellulose) (HPC)
  T/C: 100 % of control
dose: 1.5 mg/kg/injection, schedule: Q01DX009 (ip), vehicle: Klucel (hydroxypropylcellulose) (HPC)
  T/C: 95 % of control and 106 % of control

## Cc1cc(=O)[nH]c2c1C(=O)c1c(C)cc(=O)n(C)c1C2=O
dose: 0.5 mg/kg/injection, schedule: Q04DX003 (ip), vehicle: Klucel (hydroxypropylcellulose) (HPC)
  T/C: 92 % of control
dose: 1.25 mg/kg/injection, schedule: Q04DX003 (ip), vehicle: Klucel (hydroxypropylcellulose) (HPC)
  T/C: 102 % of control
dose: 2.5 mg/kg/injection, schedule: Q04DX003 (ip), vehicle: Klucel (hydroxypropylcellulose) (HPC)
  T/C: 89 % of control

## c1cc2c(c(CC3CO3)c1CC1CO1)OCCOCCOCCOCCO2 (stereo not given)
dose: 50.0 mg/kg/injection, schedule: Q01DX009 (ip), vehicle: saline + Tween-80 + alcohol
  T/C: 109 % of control
dose: 100.0 mg/kg/injection, schedule: Q01DX009 (ip), vehicle: saline + Tween-80 + alcohol
  T/C: 118 % of control

## CCCOCC(O)CO (stereo not given)
[1]
  T/C: 118 % of control
[2]
  T/C: 118 % of control
[3]
  T/C: 112 % of control

## CN(C(=O)c1cccnc1)c1ccccc1
[4]
  T/C: 109 % of control
[5]
  T/C: 118 % of control
[6]
  T/C: 111 % of control

## CC1CNC(=O)O1 (stereo not given)
[7]
  T/C: 104 % of control
[8]
  T/C: 100 % of control
[1]
  T/C: 100 % of control
[2]
  T/C: 92 % of control
[3]
  T/C: 97 % of control

## CSc1nc(N)cc(NC(=O)CCl)n1
dose: 6.25 mg/kg/injection, schedule: Q01DX009 (ip), vehicle: saline with Tween-80
  T/C: 109 % of control
dose: 12.5 mg/kg/injection, schedule: Q01DX009 (ip), vehicle: saline with Tween-80
  T/C: 97 % of control
dose: 25.0 mg/kg/injection, schedule: Q01DX009 (ip), vehicle: saline with Tween-80
  T/C: 89 % of control and 118 % of control
[9]
  T/C: 97 % of control and 120 % of control

## CCC(C)C(NC(=O)CNC(=O)CNC(=O)OCc1ccccc1)C(=O)O (stereo not drawn) (Cbz-Gly-Gly-[ξI]-OH)
[9]
  T/C: 94 % of control
[4]
  T/C: 92 % of control
[5]
  T/C: 91 % of control
[6]
  T/C: 86 % of control

## CC(=O)CC(=O)Nc1ccc(C)c(C)c1
[1]
  T/C: 92 % of control
[2]
  T/C: 89 % of control
[3]
  T/C: 94 % of control

## Cc1ccc(Cl)cc1NC(=O)c1ccc(Cl)cc1Cl
[10]
  T/C: 95 % of control
[11]
  T/C: 102 % of control

## O=C1C=CC(=O)C2=C1C1c3ccccc3C2([N+](=O)[O-])c2ccccc21
[12]
  T/C: 97 % of control
[13]
  T/C: 97 % of control
dose: 400.0 mg/kg/injection, schedule: Q01DX009 (ip), vehicle: Klucel (hydroxypropylcellulose) (HPC)
  T/C: 100 % of control

## CN(C)CCCn1c2c(c3ccccc31)CCCCCC2
dose: 3.12 mg/kg/injection, schedule: Q01DX009 (ip), vehicle: saline
  T/C: 119 % of control
[14]
  T/C: 100 % of control
[15]
  T/C: 100 % of control
[7]
  T/C: 113 % of control
[8]
  T/C: 94 % of control

## C=COCC(C)C (tested in a mixture with another compound)
dose: 0.39 mg/kg/injection, schedule: Q01DX009 (ip), vehicle: saline
  T/C: 108 % of control
dose: 0.78 mg/kg/injection, schedule: Q01DX009 (ip), vehicle: saline
  T/C: 100 % of control
dose: 1.56 mg/kg/injection, schedule: Q01DX009 (ip), vehicle: saline with Tween-80
  T/C: 88 % of control
dose: 1.56 mg/kg/injection, schedule: Q01DX009 (ip), vehicle: saline
  T/C: 88 % of control and 94 % of control
dose: 3.13 mg/kg/injection, schedule: Q01DX009 (ip), vehicle: saline
  T/C: 89 % of control
[14]
  T/C: 86 % of control

## Cc1cn(C2CC3[O][Sn]([c]4ccccc4)([c]4ccccc4)[O]CC3O2)c(=O)[nH]c1=O (stereo not given)
[14]
  T/C: 91 % of control
[15]
  T/C: 93 % of control and 117 % of control
[7]
  T/C: 94 % of control and 124 % of control
[8]
  T/C: 98 % of control

## NC(=O)CCC(N)C(=O)O.[Cl-].[Cl-].[Cl-].[Cl-].[Pt+2] (stereo not given)
dose: 1.56 mg/kg/injection, schedule: Q01DX009 (ip), vehicle: water
  T/C: 110 % of control
dose: 3.13 mg/kg/injection, schedule: Q01DX009 (ip), vehicle: water
  T/C: 110 % of control
dose: 12.5 mg/kg/injection, schedule: Q01DX009 (ip), vehicle: water
  T/C: 120 % of control
dose: 25.0 mg/kg/injection, schedule: Q01DX009 (ip), vehicle: water
  T/C: 112 % of control

## O=c1[nH]cnc2nc(/N=N/SCCO)[nH]c12
[16]
  T/C: 100 % of control
[17]
  T/C: 103 % of control
[12]
  T/C: 101 % of control
[13]
  T/C: 98 % of control

## O=[N+]([O-])c1cccc(S(=O)(=O)N2CCN(S(=O)(=O)c3cccc([N+](=O)[O-])c3)C2)c1
[10]
  T/C: 109 % of control
[11]
  T/C: 102 % of control
[18]
  T/C: 94 % of control

## O=C(O)/C(=C\c1ccc(Cl)cc1)c1ccc(Cl)cc1
dose: 37.5 mg/kg/injection, schedule: Q01DX009 (ip), vehicle: Klucel (hydroxypropylcellulose) (HPC)
  T/C: 87 % of control
dose: 75.0 mg/kg/injection, schedule: Q01DX009 (ip), vehicle: Klucel (hydroxypropylcellulose) (HPC)
  T/C: 92 % of control
dose: 150.0 mg/kg/injection, schedule: Q01DX009 (ip), vehicle: Klucel (hydroxypropylcellulose) (HPC)
  T/C: 93 % of control

## S=C1SCN(C2CCCCC2)CN1C1CCCCC1
[10]
  T/C: 93 % of control
[11]
  T/C: 90 % of control
[18]
  T/C: 86 % of control

## O=C(O)c1c(-c2ccccc2)[nH]c2cc(Cl)ccc2c1=O
[15]
  T/C: 100 % of control
[7]
  T/C: 102 % of control
[8]
  T/C: 102 % of control
dose: 100.0 mg/kg/injection, schedule: Q04DX003 (ip), vehicle: saline with Tween-80
  T/C: 109 % of control
dose: 200.0 mg/kg/injection, schedule: Q01DX005 (ip), vehicle: saline
  T/C: 95 % of control
dose: 200.0 mg/kg/injection, schedule: Q04DX003 (ip), vehicle: saline with Tween-80
  T/C: 102 % of control

## Nc1nc(O)c(CC(=O)O)s1
dose: 12.5 mg/kg/injection, schedule: Q01DX009 (ip), vehicle: Klucel (hydroxypropylcellulose) (HPC)
  T/C: 88 % of control
[16]
  T/C: 91 % of control
[17]
  T/C: 95 % of control

## Cc1c([C@H](C)[C@@H]2NC[C@@H](C)C[C@H]2O)ccc2c1C[C@H]1[C@H]2CC=C2C[C@@H](O)CC[C@@]21C
dose: 1.5 mg/kg/injection, schedule: Q01DX009 (ip), vehicle: saline
  T/C: 97 % of control
dose: 3.0 mg/kg/injection, schedule: Q01DX009 (ip), vehicle: saline
  T/C: 104 % of control

## Cc1cc2ncn(C(=O)Nc3ccccc3)c2cc1C
[4]
  T/C: 100 % of control
[5]
  T/C: 95 % of control
[6]
  T/C: 88 % of control

## O=NN(CCCl)C(=O)NC1CCCCC1
dose: 4.0 mg/kg/injection, schedule: Q01DX001 (ip), vehicle: Klucel (hydroxypropylcellulose) (HPC)
  T/C: 102 % of control and 121 % of control
dose: 4.0 mg/kg/injection, schedule: Q01DX001 (ip), vehicle: saline
  T/C: 107 % of control
dose: 7.5 mg/kg/injection, schedule: Q01DX001 (ip), vehicle: other
  T/C: 107 % of control
dose: 8.0 mg/kg/injection, schedule: Q01DX001 (ip), vehicle: Klucel (hydroxypropylcellulose) (HPC)
  T/C: 102 % of control
dose: 12.5 mg/kg/injection, schedule: Q01DX010 (ip), vehicle: saline
  T/C: 115 % of control
dose: 25.0 mg/kg/injection, schedule: Q01DX010 (ip), vehicle: saline
  T/C: 110 % of control
dose: 30.0 mg/kg/injection, schedule: Q01DX001 (ip), vehicle: other
  T/C: 198 % of control
dose: 32.0 mg/kg/injection, schedule: Q01DX001 (ip), vehicle: Klucel (hydroxypropylcellulose) (HPC)
  T/C: 182 % of control and 312 % of control
dose: 50.0 mg/kg/injection, schedule: Q01DX010 (ip), vehicle: saline
  T/C: 113 % of control
dose: 100.0 mg/kg/injection, schedule: Q01DX010 (ip), vehicle: saline
  T/C: 102 % of control

## NC(=O)C1(N2CCCC2)CCN(Cc2ccccc2)CC1
dose: 25.0 mg/kg/injection, schedule: Q04DX003 (ip), vehicle: Klucel (hydroxypropylcellulose) (HPC)
  T/C: 105 % of control
dose: 50.0 mg/kg/injection, schedule: Q04DX003 (ip), vehicle: Klucel (hydroxypropylcellulose) (HPC)
  T/C: 94 % of control
[10]
  T/C: 100 % of control

From PubChem BioAssay AID192 (DTP/NCI, 2004)
